According to patent US20260258039A1, “AROMATIC COMPOUND, METHOD FOR PREPARING SAME, AND USE THEREOF IN PREPARATION OF ESTROGEN RECEPTOR DEGRADER” (Hinova Pharmaceuticals Inc., priority 2022, published 2026):
Like-named read-outs stand apart in the source and are kept apart here.

Tests used:
Format in all cases: cell-based
[1] = test system: MCF-7 breast cancer cells; assay: Inhibition of proliferation of MCF-7 breast cancer cells (agarose culture, CellTiter-Glo 3D)
Procedure: After 1.6% agarose and 0.7% agarose were sterilized at high temperature, they were cooled to around 50° C., and placed in a 42° C. water bath for later use. MCF-7 breast cancer cells were subcultured in complete cell culture medium, and cells in good growth condition were digested and counted for future use. 50 µL of 1.6% agarose mixed with 2× culture medium at a ratio of 1:1 was spread into the bottom of 96-well plate, and allowed to cool and solidify. 0.7% agarose was mixed with diluted cell suspension in a ratio of 1:1, and then 50 µL of the mixture of gel and cells was added to each well, with 2000 cells for each well; the mixture was allowed to cool and solidify at room temperature. 50 μL of culture medium was added to the plate containing cells, and the plate was placed in a 37° C., 5% CO2 incubator and cultured for 24 h. The drug was prepared into 10 mM stock solution with dimethyl sulfoxide (DMSO). The stock solution was diluted in a ratio of 1:3, to obtain 9 concentration gradients. Then, each concentration of compound solution was further diluted with culture medium in 1:250 (to ensure a DMSO concentration of 0.1% in the culture system). Two replicate wells was set for each concentration. 50 μL of the diluted compound solution was added to the cell culture wells (with final concentrations of 10 μM, 3.3 μM, 1.1 μM, 0.37 μM . . . ). The plate was gently shaken for mixing. Additionally, 3 negative control wells only containing cells and 3 blank control wells only containing culture medium were set up (each of the 6 wells was added with 50 μL of DMSO diluted with culture medium in a ration of 1:250). After 15 days of cultivation, the cell plates and CellTiter-Glo 3D Cell Viability were taken out and equilibrated to room temperature in advance. 80 μL of culture medium were aspirated and discarded from the cell plate, and 120 µL of CellTiter-Glo 3D Cell Viability solution was added to each well. The plates were centrifuged at 1200 rpm/min for 5 min, and then placed in the dark and kept for 25 min. The […] were measured using a multi-function microplate reader. The data were analyzed using the Dose-response-inhibition equation in GraphPad Prism8 software, and the IC50 values were obtained, as shown in Table 3.

ER [2] = molecular target: T1, ER (Homo sapiens, UniProt P03372); assay: Degradation activities on ER (ELISA) in T47D breast cancer cells; conditions: for DC50: concentration required to degrade 50% of the target protein
T1 construct: T47D breast cancer cells were subcultured in cell culture medium; endogenous in cells; host or cells: T47D breast cancer cells
T1 sequence (P03372 1-595): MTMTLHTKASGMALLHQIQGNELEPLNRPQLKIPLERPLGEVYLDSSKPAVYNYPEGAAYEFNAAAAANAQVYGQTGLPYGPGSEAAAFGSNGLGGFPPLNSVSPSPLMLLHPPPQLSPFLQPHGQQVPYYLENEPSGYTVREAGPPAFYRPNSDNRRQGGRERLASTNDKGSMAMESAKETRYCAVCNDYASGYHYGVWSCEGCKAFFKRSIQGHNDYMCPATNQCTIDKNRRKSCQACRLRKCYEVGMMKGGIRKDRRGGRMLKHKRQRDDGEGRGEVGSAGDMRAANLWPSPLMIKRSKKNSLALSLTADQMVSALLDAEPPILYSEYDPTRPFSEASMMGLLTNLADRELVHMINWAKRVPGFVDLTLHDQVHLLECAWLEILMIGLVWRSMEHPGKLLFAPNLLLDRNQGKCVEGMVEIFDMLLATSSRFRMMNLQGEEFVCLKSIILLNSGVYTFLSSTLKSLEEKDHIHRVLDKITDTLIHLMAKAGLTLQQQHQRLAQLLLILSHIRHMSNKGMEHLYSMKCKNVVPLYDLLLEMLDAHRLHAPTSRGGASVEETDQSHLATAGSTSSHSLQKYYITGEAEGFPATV
Method in brief: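 T47D cells were seeded at 2.5×10^4/well, grown 3 days at 37 °C, 5% CO2, then exposed 24 h to compound at 100, 25, 6.25, 1.56, 0.39 and […] nM (final). ER protein was quantified by sandwich ELISA with HRP/TMB read at 450 nm, and DC50 and Dmax came from dose-response fits.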

ER [3] = molecular target: T1, ER; assay: Degradation activities on ER (Western blotting) in T47D breast cancer cells; conditions: compound concentration 10 nM, 24 h, Western blot
Procedure: T47D breast cancer cells were subcultured in cell culture medium, and the cells in good growth condition were seeded into 6-well plate at 2 mL/well, with 2.5×10^5 cells per well. The cells were incubated overnight in a 37° C. incubator under 5% CO2. The drug was prepared into 10 mM stock solution with dimethyl sulfoxide (DMSO). Prior to use, the stock solution was diluted with DMSO in a ratio of 1:3. […] of the diluted compound was added to the cell culture wells (to ensure a DMSO concentration of 0.1% in the culture system), and each concentration was repeated twice. The plate were gently shaken to mix. Additionally, the negative control wells (containing equal amount of DMSO) and the positive control wells were set up. After 24 hours of culture, the cells were lysed with RIPA cell lysis buffer to extract proteins, and the protein concentration was measured using a BCA kit. The protein loading buffer (5×) was added, and the plate was heated at 100° C. for 5 min. Then, the sample was stored at −20° C. […] of protein collected from each well was loaded onto a polyacrylamide gel for electrophoresis. The protein is transferred from the polyacrylamide gel to a PVDF membrane, blocked with 5% skim milk at room temperature for 1 h, and incubated overnight at 4° C. with primary antibodies Anti-ERα rabbit mAb (CST, Cat #: 8644S) and Anti-GAPDH rabbit mAb (CST, Cat #: 2118L). The membrane was washed three times with TBST solution, with 10 min for each time. The secondary antibody (horseradish peroxidase-labeled goat anti-rabbit IgG) was incubated at room temperature for 2 h, and then the membrane was washed three times with TBST solution, with 10 min for each time. Finally, ECL chromogenic solution was added for color development, and an automatic chemiluminescence instrument was used to take pictures. Images were collected and analyzed.
The degradation activities of the compounds according to the present invention towards ER, as tested by western blotting, are presented in Table 2

[4] = Homo sapiens, MCF7, 360 h, MCF-7 cells, 15 days of cultivation, read-out: IC50
[5] = T47D cells, 24 h, ELISA, maximum percentage of target protein degraded, read-out: Dmax
[6] = MCF-7 cells, 15 days of cultivation, read-out: IC50

Row | DC50 (ER [2]; T47D cells, 24 h, ELISA) [nM] | IC50 [1, 4] [nM] | Dmax (ER [2]; [5]) [%] | Compound | further results
1 | < 10 | < 10 | > 75 | O=C1CCC(N2Cc3cc(N4CC5(CCN(CC6CCN(c7ccc(C8=C(c9c(F)cccc9F)COc9cc(O)ccc98)cc7F)CC6)CC5)C4)ccc3C2=O)C(=O)N1 (stereo not shown) [Example 76, 3-(5-(7-((1-(4-(3-(2,6-difluorophenyl)-7-hydroxyl-2H-chromene-4-yl)-2-fluorophenyl)piperidin-4-yl)methyl)-2,7-diazaspiro[3.5]nonane-2-yl)-1-oxoisoinodolin-2-yl)piperidin-6-dione] | –
2 | < 10 | – | – | O=C1CCC(N2Cc3cc(N4CC5(CCN(CC6CCN(c7c(F)cc([C@@H]8c9ccc(O)cc9OC[C@@H]8c8ccccc8F)cc7F)CC6)CC5)C4)ccc3C2=O)C(=O)N1 (stereo partly drawn) [Example 50, 3-(5-(7-((1-(4-((3S,4R)-3-(2-fluorophenyl)-7-hydroxychroman-4-yl)-2,6-difluorophenyl)piperidin-4-yl)methyl)-2,7-diazaspiro[3.5]nonane-2-yl)-1-oxoisoinodolin-2-yl)piperidin-2,6-one] | IC50 [1, 6]: < 10 nM
3 | < 10 | < 10 | > 75 | O=C1CC[C@H](N2Cc3cc(N4CC5(CCN(CC6CCN(c7ccc([C@@H]8c9ccc(O)cc9OC[C@@H]8c8c(F)cccc8F)cc7F)CC6)CC5)C4)ccc3C2=O)C(=O)N1 [Example 75, (S)-3-(5-(7-((1-(4-((3S,4R)-3-(2,6-difluorophenyl)-7-hydroxychroman-4-yl)-2-fluorophenyl)piperidin-4-yl)methyl)-2,7-diazaspiro[3.5]nonane-2-yl)-1-oxoisoinodolin-2-yl)piperidin-2,6-dione] | –
4 | < 10 | < 10 | > 75 | O=C1CC[C@H](N2Cc3cc(N4CC5(CCN(CC6CCN(c7c(F)cc([C@@H]8c9ccc(O)cc9OC[C@@H]8c8c(F)cccc8F)cc7F)CC6)CC5)C4)ccc3C2=O)C(=O)N1 [Example 45] | –
5 | < 10 | < 10 | – | O=C1CCC(N2Cc3cc(N4CC5(CCN(CC6CCN(c7c(F)cc([C@@H]8c9ccc(O)cc9OC[C@@H]8c8cccc(F)c8F)cc7F)CC6)CC5)C4)ccc3C2=O)C(=O)N1 (stereo partly drawn) [Example 49, 3-(5-(7-((1-(4-((3S, 4R)-3-(2,3-difluorophenyl)-7-hydroxychroman-4-yl)-2,6-difluorophenyl)piperidin-4-yl)methyl)-2,7-diazaspiro[3.5]nonane-2-yl)-1-oxoisoinodolin-2-yl)piperidin-2,6-one] | –

The remaining lines, values behind:

Row | Compound | DC50 (ER [2]; T47D cells, 24 h, ELISA) [nM] | IC50 [1, 4] [nM] | Dmax (ER [2]; [5]) [%] | further results
6 | O=C1CCC(N2Cc3cc(N4CC5(CCN(CC6CCN(c7ccc([C@@H]8c9ccc(O)cc9OC[C@@H]8c8cccc(F)c8)cc7)CC6)CC5)C4)ccc3C2=O)C(=O)N1 (stereo partly drawn) [Example 60, 3-(5-(7-((1-(4-((3,4-cis)-3-(3-fluorophenyl)-7-hydroxyl-chroman-4-yl)phenyl)piperidin-4-yl)methyl)-2,7-diazaspiro[3.5]nonane-2-yl)-1-oxoisoindol-2-yl)piperidin-2,6-dione] | < 10 | – | – | IC50 ([1]; Homo sapiens, MCF7, 360 h): < 10 nM; Dmax (ER [2]; T47D): 50 to 75%
7 | O=C1CCC(N2Cc3cc(N4CC5(CCN(CC6CCN(c7ccc([C@@H]8c9ccc(O)cc9OC[C@@H]8c8ccc(F)cc8)cc7)CC6)CC5)C4)ccc3C2=O)C(=O)N1 (stereo partly drawn) [Example 9, 3-(5-(7-((1-(4-(cis-3-(4-fluorophenyl)-7-hydroxyltryptophane-4-yl)phenyl)piperidin-4-yl)methyl)-2,7-diazaspiro[3.5]nonane-2-yl)-1-oxoisoinodolin-2-yl)piperidin-2,6-dione] | < 10 | 11 to 50 | 50 to 75 | –
8 | O=C1CCC(N2Cc3cc(N4CCC(N5CC6(CCN(c7ccc([C@@H]8c9ccc(O)cc9CC[C@@H]8c8ccccc8F)cc7)CC6)C5)CC4)ccc3C2=O)C(=O)N1 (stereo partly drawn) [Example 22, 3-(5-(4-(7-(4-((1R,2S)-2-(2-fluorophenyl)-6-hydroxyl-1,2,3,4-tetrahydronaphthalen-1-yl)phenyl)-2,7-diazaspiro[3.5]nonane-2-yl)piperidin-1-yl)-1-oxoisoinodolin-2-yl)piperidin-2,6-dione] | < 10 | < 10 | – | –
9 | O=C1CCC(N2Cc3cc(N4CC5CN(CC6CCN(c7ccc([C@H]8c9ccc(O)cc9OC[C@H]8c8ccccc8)cc7)CC6)CC5C4)ccc3C2=O)C(=O)N1 (stereo partly drawn) [Example 82, 3-(5-(5-((1-(4-((3R,4S)-7-hydroxyl-3-phenylchroman-4-yl)phenyl)piperidin-4-yl)methyl)hexahydropyrrolo[3,4-c]pyrrole-2(1H)-yl)-1-oxoisoinodolin-2-yl)piperidin-2,6-dione] | – | – | – | Percentage reduction of ER (ER [3]): 49%
10 | O=C1CCC(N2Cc3cc(N4CC(N5CCN(c6ccc([C@@H]7c8ccc(O)cc8CC[C@@H]7c7ccccc7)cc6)CC5)C4)ccc3C2=O)C(=O)N1 (stereo partly drawn) [Example 59, 3-(5-(3-(4-(4-((1R,2S)-6-hydroxyl-2-phenyl-1,2,3,4-tetrahydronaphthalen-1-yl)phenyl)piperazine-1-yl)azetidin-1-yl)-1-oxoisoindol-2-yl)piperidin-2,6-dione] | – | – | – | Percentage reduction of ER (ER [3]): 54%
11 | O=C1CCC(N2Cc3cc(N4CC5(CCN(CC6CCN(c7c(F)cc([C@@H]8c9ccc(O)cc9OC[C@@H]8c8c(F)cccc8F)cc7F)CC6)CC5)C4)ccc3C2=O)C(=O)N1 (stereo partly shown) [Example 40] | < 10 | < 10 | – | –
12 | O=C1CCC(N2Cc3cc(N4CC5(CCN(CC6CCN(c7ccc(C8=C(c9c(F)cccc9F)COc9cc(O)ccc98)cc7)CC6)CC5)C4)ccc3C2=O)C(=O)N1 (stereo not shown) [Example 18, 3-(5-(7-((1-(4-(3-(2,6-difluorophenyl)-7-hydroxyl-2H-chromene-4-yl)phenyl)piperidin-4-yl)methyl)-2,7-diazaspiro[3.5]nonane-2-yl)-1-oxoisoinodolin-2-yl)piperidin-2,6-dione] | < 10 | – | – | IC50 [1, 6]: < 10 nM; Dmax (ER [2]; T47D cells, 24 h, ELISA, maximum percentage of target protein degraded): A (A: >75%)
13 | O=C1CCC(N2Cc3cc(N4CC5(CCN(CC6CCN(c7c(F)cc(C8=C(c9c(F)cccc9F)COc9cc(O)ccc98)cc7F)CC6)CC5)C4)ccc3C2=O)C(=O)N1 (stereo not shown) [Example 42] | < 10 | 11 to 50 | 50 to 75 | –
